Results on 31 compounds are retold here after US8703805B2 (Exelixis Patent Company LLC, priority 2005, dated 2014).

Where “and” joins values, the source holds several entries; their conditions need not be identical. Equal entries are not always repeated.

The term EC50 denotes the concentration giving half of the maximal effect. Low values mean greater potency, high ones weaker potency.

For this assay, the system named is LXRα and/or LXRβ. In words: LXR/LXRE co-transfection assay (luciferase reporter, CV-1 cells). In kind it is cell-based, human. The following applies: IC50 or EC50 for LXR (LXRα and/or LXRβ, not distinguished), tested as described in Example 109, CV-1 cells. The essentials: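 Transient co-transfection of CV-1 cells with full-length human LXRα or LXRβ plus RXRα expression plasmids and an LXREx1-Tk-luciferase reporter; compounds (10 μM screen, ≤1% DMSO) incubated 20 h at 37 °C. Luminescence read after lysis; EC50/IC50 from 8-point half-log curves, efficacy relative to a high control or DMSO.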
Take `CC(C)(O)c1cccc(-c2ccc(-c3cc(C(F)(F)F)nn3-c3ncccc3C(F)(F)F)s2)c1` [Example 1252, 2-[3-(5-{3-(trifluoromethyl)-1-[3-(trifluoromethyl)pyridin-2-yl]-1H-pyrazol-5-yl}-2-thienyl)phenyl]propan-2-ol]: the EC50 is 1 to 10 µM.
With `CC(C)(O)c1cccc(-c2ccc(-c3cc(C(F)(F)F)nn3-c3c(Cl)cccc3Cl)c(Cl)c2)c1` [Example 1395, 2-(3′-chloro-4′-(1-(2,6-dichlorophenyl)-3-(trifluoromethyl)-1H-pyrazol-5-yl)biphenyl-3-yl)propan-2-ol] the figure was under 1 µM; with `CC(C)(O)c1cc(-c2ccc(-c3cccc(S(C)(=O)=O)c3)s2)n(Cc2ccc(F)cc2F)n1` [Example 1243, 2-(1-[(2,4-difluorophenyl)methyl]-5-{5-[3-(methylsulfonyl)phenyl]-2-thienyl}-1H-pyrazol-3-yl)propan-2-ol], under 1 µM.
Then `CN(CC(N)=O)C(=O)c1cc(-c2ccc(-c3cccc(S(C)(=O)=O)c3)s2)n(-c2ccccc2Cl)n1` [Example 724, N-(2-amino-2-oxoethyl)-1-(2-chlorophenyl)-N-methyl-5-{5-[3-(methylsulfonyl)phenyl]-2-thienyl}-1H-pyrazole-3-carboxamide], with 1 to 10 µM.
Then `CC(C)(O)c1nn(-c2ccc(-c3cccc(S(C)(=O)=O)c3)cc2Cl)c(-c2ccccc2Cl)c1Cl` [Example 1423, 2-(4-chloro-1-(3-chloro-3′-(methylsulfonyl)biphenyl-4-yl)-5-(2-chlorophenyl)-1H-pyrazol-3-yl)propan-2-ol], with under 1 µM; and `CC(C)(O)c1nn(-c2cccc(F)c2Cl)c(-c2ccc(-c3cccc(S(C)(=O)=O)c3)s2)c1Cl` [Example 1371, 2-[4-chloro-1-(2-chloro-3-fluorophenyl)-5-{5-[3-(methylsulfonyl)phenyl]-2-thienyl}-1H-pyrazol-3-yl]propan-2-ol], with under 1 µM; and `COC(=O)c1cc(-c2ccc(-c3cccc(S(C)(=O)=O)c3)s2)n(-c2ccccc2C(F)(F)F)n1` [Example 1156, methyl 5-{5-[3-(methylsulfonyl)phenyl]-2-thienyl}-1-[2-(trifluoromethyl)phenyl]-1H-pyrazole-3-carboxylate], with 1 to 10 µM.
For the compound `CC(O)(c1cc(-c2ccc(-c3cccc(S(C)(=O)=O)c3)s2)n(-c2ccccc2Cl)n1)C(F)(F)F` (stereo not shown) [Example 1182, 2-[1-(2-chlorophenyl)-5-{5-[3-(methylsulfonyl)phenyl]-2-thienyl}-1H-pyrazol-3-yl]-1,1,1-trifluoropropan-2-ol], the EC50 is under 1 µM.
`CS(=O)(=O)c1cccc(-c2ccc(-c3cc(C4(O)CC4)nn3-c3ccccc3Cl)s2)c1` [Example 1245, 1-[1-(2-chlorophenyl)-5-{5-[3-(methylsulfonyl)phenyl]-2-thienyl}-1H-pyrazol-3-yl]cyclopropanol] showed an EC50 of under 1 µM.
`CS(=O)(=O)NC(=O)c1cc(-c2ccc(-c3cccc(S(C)(=O)=O)c3)s2)n(-c2ccccc2C(F)(F)F)n1` [Example 1196, N-(methylsulfonyl)-5-{5-[3-(methylsulfonyl)phenyl]-2-thienyl}-1-[2-(trifluoromethyl)phenyl]-1H-pyrazole-3-carboxamide]: the EC50 fell in the range of 1 to 10 µM.
Compound `CCS(=O)(=O)c1cccc(-c2ccc(-c3cc(C(C)(C)C(=O)O)nn3-c3ccccc3Cl)s2)c1` [Example 1302, 2-[1-(2-chlorophenyl)-5-{5-[3-(ethylsulfonyl)phenyl]-2-thienyl}-1H-pyrazol-3-yl]-2-methylpropanoic acid] yielded an EC50 of 1 to 10 µM.
With `CS(=O)(=O)c1cc(-c2ccc(-c3cc(C(F)(F)F)nn3-c3cc(Cl)ccc3Cl)s2)ccc1O` [Example 1247, 4-{5-[1-(2,5-dichlorophenyl)-3-(trifluoromethyl)-1H-pyrazol-5-yl]-2-thienyl}-2-(methylsulfonyl)phenol], the 50% effective concentration (EC50) is 1 to 10 µM.
Then `O=C(NCCN1CCOCC1)c1ccc(-c2cc(C(F)(F)F)nn2-c2ccccc2Cl)cc1` [Example 970, 4-[1-(2-chlorophenyl)-3-(trifluoromethyl)-1H-pyrazol-5-yl]-N-(2-morpholin-4-ylethyl)benzamide], with 1 to 10 µM; and `CC(C)(O)c1cc(-c2ccc(-c3ccc(S(C)(=O)=O)cc3)s2)n(-c2ccccc2Cl)n1` [Example 804, 2-[1-(2-chlorophenyl)-5-{5-[4-(methylsulfonyl)phenyl]-2-thienyl}-1H-pyrazol-3-yl]propan-2-ol], with 1 to 10 µM.
Regarding `CC(C)(O)c1cc(-c2ccc(-c3cc(C(F)(F)F)nn3-c3ccccc3Cl)s2)cc(S(C)(=O)=O)c1` [Example 1318, 2-[3-{5-[1-(2-chlorophenyl)-3-(trifluoromethyl)-1H-pyrazol-5-yl]-2-thienyl}-5-(methylsulfonyl)phenyl]propan-2-ol], the EC50 is under 1 µM.
Then `Cc1cc(-c2cccc(S(C)(=O)=O)c2)ccc1-n1nc(C(C)(C)O)cc1-c1c(F)cccc1Cl` [Example 115, 2-(5-(2-chloro-6-fluorophenyl)-1-(3-methyl-3′-(methylsulfonyl)biphenyl-4-yl)-1H-pyrazol-3-yl)propan-2-ol], with under 1 µM; and `CC(C)(O)c1cc(-c2ccc(-c3cccc(S(C)(=O)=O)c3)cc2Cl)n(-c2cccnc2C(F)(F)F)n1` [Example 1385, 2-(5-(3-chloro-3′-(methylsulfonyl)biphenyl-4-yl)-1-(2-(trifluoromethyl)pyridin-3-yl)-1H-pyrazol-3-yl)propan-2-ol], with under 1 µM; and `CN1CCC(N(C)C(=O)c2cc(-c3ccc(-c4cccc(S(C)(=O)=O)c4)s3)n(-c3ccccc3Cl)n2)CC1` [Example 716, 1-(2-chlorophenyl)-N-methyl-N-(1-methylpiperidin-4-yl)-5-{5-[3-(methylsulfonyl)phenyl]-2-thienyl}-1H-pyrazole-3-carboxamide], with under 1 µM.
With `CC(C)(O)c1cc(-c2ccc(-c3cccc(S(C)(=O)=O)c3)s2)n(-c2ccccn2)n1` [Example 1264, 2-(5-{5-[3-(methylsulfonyl)phenyl]-2-thienyl}-1-pyridin-2-yl-1H-pyrazol-3-yl)propan-2-ol] the figure was 1 to 10 µM; with `CC(C)(O)c1cc(-c2c(F)cccc2Cl)n(-c2ccc(-c3cccc(S(C)(=O)=O)c3)cc2F)n1` [Example 120, 2-(5-(2-chloro-6-fluorophenyl)-1-(3-fluoro-3′-(methylsulfonyl)biphenyl-4-yl)-1H-pyrazol-3-yl)propan-2-ol], under 1 µM.
Then `Cc1cc(-c2cccc(S(C)(=O)=O)c2)ccc1-c1c(Cl)c(C(C)(C)O)nn1-c1c(Cl)cccc1Cl` [Example 1386, 2-(4-chloro-1-(2,6-dichlorophenyl)-5-(3-methyl-3′-(methylsulfonyl)biphenyl-4-yl)-1H-pyrazol-3-yl)propan-2-ol], with under 1 µM; and `CS(=O)(=O)c1cccc(-c2ccc(-c3cc(C(F)(F)F)nn3-c3ccccc3Cl)cc2C(=O)O)c1` [Example 1139, 4-[1-(2-chlorophenyl)-3-(trifluoromethyl)-1H-pyrazol-5-yl]-3′-(methylsulfonyl)biphenyl-2-carboxylic acid], with 1 to 10 µM and < 1 µM; and `CCS(=O)(=O)c1cccc(-c2ccc(-c3cc(C(C)(C)C#N)nn3-c3ccccc3Cl)s2)c1` [Example 1180, 2-[1-(2-chlorophenyl)-5-{5-[3-(ethylsulfonyl)phenyl]-2-thienyl}-1H-pyrazol-3-yl]-2-methylpropanenitrile], with under 1 µM.
In turn, `CC(=O)Nc1cccc(-c2ccc(-c3cc(C(C)(C)O)nn3-c3ccccc3Cl)cc2)c1` [Example 1311, N-{4′-[1-(2-chlorophenyl)-3-(1-hydroxy-1-methylethyl)-1H-pyrazol-5-yl]biphenyl-3-yl}acetamide] showed an EC50 of 1 to 10 µM.
Then `Cc1cc(-c2cccc(S(C)(=O)=O)c2)ccc1-n1nc(C(C)(C)O)cc1-c1ccccc1C(F)(F)F` [Example 139, 2-(1-(3-methyl-3′-(methylsulfonyl)biphenyl-4-yl)-5-(2-(trifluoromethyl)phenyl)-1H-pyrazol-3-yl)propan-2-ol], with under 1 µM; and `CC(C)S(=O)(=O)c1cccc(-c2ccc(-c3cc(C(F)(F)F)nn3-c3ccccc3Cl)cc2)c1` [Example 1167, 1-(2-chlorophenyl)-5-{3′-[(1-methylethyl)sulfonyl]biphenyl-4-yl}-3-(trifluoromethyl)-1H-pyrazole], with under 1 µM.
With `CC(C)(O)c1nn(-c2ccccc2Cl)c(-c2ccc(-c3cccc(S(C)(=O)=O)c3)s2)c1Br` [Example 1278, 2-[4-bromo-1-(2-chlorophenyl)-5-{5-[3-(methylsulfonyl)phenyl]-2-thienyl}-1H-pyrazol-3-yl]propan-2-ol] the figure was under 1 µM; with `CC(C)CNC(=O)c1cc(-c2ccc(-c3cccc(S(C)(=O)=O)c3)cc2Cl)n(-c2c(Cl)cccc2Cl)n1` [Example 1389, 5-(3-chloro-3′-(methylsulfonyl)biphenyl-4-yl)-1-(2,6-dichlorophenyl)-N-isobutyl-1H-pyrazole-3-carboxamide], under 1 µM; with `CC(=O)c1cc(-c2ccc(-c3cccc(S(C)(=O)=O)c3)s2)n(-c2ccccc2Cl)n1` [Example 1150, 1-[1-(2-chlorophenyl)-5-{5-[3-(methylsulfonyl)phenyl]-2-thienyl}-1H-pyrazol-3-yl]ethanone], under 1 µM.
Then `CC(C)(NC=O)c1cc(-c2ccc(-c3cccc(S(C)(=O)=O)c3)s2)n(-c2ccccc2Cl)n1` [Example 1203, N-{1-[1-(2-chlorophenyl)-5-{5-[3-(methylsulfonyl)phenyl]-2-thienyl}-1H-pyrazol-3-yl]-1-methylethyl}formamide], with 1 to 10 µM.
Consider `Cn1c(-c2cccc(S(C)(=O)=O)c2)ccc1-c1cc(C(C)(C)O)nn1-c1ccccc1Cl` [Example 1383, 2-(1-(2-chlorophenyl)-5-(1-methyl-5-(3-(methylsulfonyl)phenyl)-1H-pyrrol-2-yl)-1H-pyrazol-3-yl)propan-2-ol], for which the EC50 is under 1 µM.
